Values after ≈ are worked out from the molar mass of the structure shown.
Assays:
Assay type in all cases: functional
Staphylococcus aureus = assay: Antibacterial activity against Staphylococcus aureus ATCC 6538 after 24 hrs by MTT assay; conditions: ATCC 6538, 24 h
Escherichia coli = assay: Antibacterial activity against Escherichia coli ATCC 35218 after 24 hrs by MTT assay; conditions: ATCC 35218, 24 h
Trichophyton rubrum = assay: Antifungal activity against Trichophyton rubrum ATCC 10218 after 24 hrs by MTT assay; conditions: ATCC 10218, 24 h
Bacillus subtilis = assay: Antibacterial activity against Bacillus subtilis ATCC 6633 after 24 hrs by MTT assay; conditions: ATCC 6633, 24 h
Aspergillus niger = assay: Antifungal activity against Aspergillus niger ATCC 16404 after 24 hrs by MTT assay; conditions: ATCC 16404, 24 h
Pseudomonas aeruginosa = assay: Antibacterial activity against Pseudomonas aeruginosa ATCC 13525 after 24 hrs by MTT assay; conditions: ATCC 13525, 24 h

| SMILES | MIC (Staphylococcus aureus) [µg/mL] | MIC (Escherichia coli) [µg/mL] | MIC (Trichophyton rubrum) [µg/mL] | MIC (Bacillus subtilis) [µg/mL] | MIC (Aspergillus niger) [µg/mL] | MIC (Pseudomonas aeruginosa) [µg/mL] |
| --- | --- | --- | --- | --- | --- | --- |
| CCN(CC)C(=O)Nc1ccc(Cl)cc1Cl | > 50 | > 50 | > 50 | > 50 | 45.2 (≈ 173 µM) | > 50 |
| CC(C)c1ccc(NC(=O)N2CCOCC2)cc1 | > 50 | 7.2 (≈ 29 µM) | 20.7 (≈ 83.4 µM) | > 50 | > 50 | 8 (≈ 32.2 µM) |
| O=C(Nc1ccc(F)cc1)N1CCOCC1 | > 50 | 1.6 (≈ 7.14 µM) | 3.5 (≈ 15.6 µM) | > 50 | > 50 | 6.2 (≈ 27.6 µM) |
| O=C(Nc1ccccc1F)N1CCOCC1 | > 50 | 2.1 (≈ 9.37 µM) | 3.1 (≈ 13.8 µM) | 1.6 (≈ 7.14 µM) | > 50 | 12.5 (≈ 55.7 µM) |
| O=C(Nc1ccc(F)cc1F)N1CCOCC1 | > 50 | 4.2 (≈ 17.3 µM) | 18.2 (≈ 75.1 µM) | > 50 | > 50 | > 50 |
| O=C(Nc1ccc(Cl)cc1Cl)N1CCOCC1 | > 50 | 12.5 (≈ 45.4 µM) | > 50 | > 50 | > 50 | 50 (≈ 182 µM) |
| O=C(Nc1ccc(Br)cc1)N1CCOCC1 | > 50 | 3.1 (≈ 10.9 µM) | > 50 | > 50 | > 50 | 37.1 (≈ 130 µM) |
| O=C(Nc1ccc2c(c1)Cc1ccccc1-2)N1CCOCC1 | > 50 | > 50 | 31.2 (≈ 106 µM) | 40.2 (≈ 137 µM) | > 50 | 31.5 (≈ 107 µM) |
| O=C(Nc1ccccc1)N1CCOCC1 | > 50 | 6.2 (≈ 30.1 µM) | > 50 | > 50 | > 50 | 22 (≈ 107 µM) |
| Cc1ccc(NC(=O)N2CCOCC2)cc1 | > 50 | 7.2 (≈ 32.7 µM) | 38.4 (≈ 174 µM) | > 50 | > 50 | > 50 |
| O=C(Nc1ccccc1Cl)N1CCOCC1 | > 50 | 3.1 (≈ 12.9 µM) | > 50 | 3.1 (≈ 12.9 µM) | > 50 | > 50 |
| COc1ccc(NC(=O)N2CCOCC2)cc1 | > 50 | 7.5 (≈ 31.7 µM) | 12.5 (≈ 52.9 µM) | > 50 | > 50 | 12.5 (≈ 52.9 µM) |
| O=C(Nc1cc(Cl)cc(Cl)c1)N1CCOCC1 | > 50 | 12.5 (≈ 45.4 µM) | 12.5 (≈ 45.4 µM) | 6.2 (≈ 22.5 µM) | > 50 | 8.8 (≈ 32 µM) |
| O=C(N1CCOCC1)N1CCCc2ccccc21 | > 50 | > 50 | 12.5 (≈ 50.7 µM) | > 50 | 12.5 (≈ 50.7 µM) | 8.2 (≈ 33.3 µM) |
| O=C(Nc1cccc2cccnc12)N1CCOCC1 | > 50 | > 50 | 40.8 (≈ 159 µM) | 38.7 (≈ 150 µM) | > 50 | 25.3 (≈ 98.3 µM) |
| CCN(CC)C(=O)Nc1ccc(F)cc1 | > 50 | 25 (≈ 119 µM) | 32.6 (≈ 155 µM) | 6.2 (≈ 29.5 µM) | > 50 | 12.5 (≈ 59.5 µM) |
| CCN(CC)C(=O)Nc1ccccc1F | > 50 | 25 (≈ 119 µM) | > 50 | 12.5 (≈ 59.5 µM) | > 50 | > 50 |
| CCN(CC)C(=O)Nc1ccc(F)cc1F | > 50 | 25 (≈ 110 µM) | > 50 | 12.5 (≈ 54.8 µM) | > 50 | > 50 |
| CCN(CC)C(=O)Nc1ccc(C(C)C)cc1 | > 50 | > 50 | > 50 | > 50 | > 50 | 12.5 (≈ 53.3 µM) |
| CCN(CC)C(=O)Nc1ccc(Br)cc1 | > 50 | 25 (≈ 92.2 µM) | > 50 | > 50 | 23 (≈ 84.8 µM) | > 50 |
| NC[C@H]1O[C@H](O[C@H]2[C@H](O)[C@@H](O[C@H]3O[C@H](CO)[C@@H](O)[C@H](N)[C@H]3O)[C@H](N)C[C@@H]2N)[C@H](O)[C@@H](O)[C@@H]1O [KANAMYCIN] | 1 (≈ 2.06 µM) | 3.1 (≈ 6.4 µM) |  | 0.4 (≈ 0.826 µM) |  | 3.1 (≈ 6.4 µM) |
| CC(=O)N1CCN(c2ccc(OCC3COC(Cn4ccnc4)(c4ccc(Cl)cc4Cl)O3)cc2)CC1 (stereo not given) [KETOCONAZOLE] |  |  | 3.9 (≈ 7.34 µM) |  | 7.8 (≈ 14.7 µM) |  |
| CC1(C)S[C@@H]2[C@H](NC(=O)Cc3ccccc3)C(=O)N2[C@H]1C(=O)O [PENICILLIN G] | 2 (≈ 5.98 µM) | > 50 |  | 1.6 (≈ 4.78 µM) |  | 6.2 (≈ 18.5 µM) |

Reference: ChEMBL document CHEMBL1177855, “Synthesis of some N-alkyl substituted urea derivatives as antibacterial and antifungal agents” (2010)
